Consider 1 substance from patent publication US20130174483A1, “PLANT ARTIFICIAL SEEDS AND METHODS FOR THE PRODUCTION THEREOF” (E I DU PONT DE NEMOURS AND COMPANY, priority 2011, published 2013).

In this data set the test system is sugarcane plantlet, cultivar CPO-1372. To be noted: in vivo. On the procedure: Wax paper containers were cut into 4 cm and 7 cm lengths. One open end of each container was secured with either a 38 um thick LDL film, prepared as described in Example 25, or a 254 um thick soybean oil gel film. The latter was prepared by dissolving Kraton® A1535 poly(styrene-b-ethylene-co-butylene-co-styrene-b-styrene) triblock polymer in soybean oil (MP Biomedicals, Solon, Ohio) at 9 wt. % and 155° C., and casting the hot solution on a glass substrate using a doctor blade with a 5 cm wide and 254 um thick gap, preheated to 155° C. Upon cooling to room temperature, the physical gelation of the triblock polymer in the oil yielded a solid, but highly deformable film. LDL film was affixed to the wax paper container using a thin layer of cyanoacrylate adhesive (Sigma-Aldrich, St. Louis, Mo.). Soybean oil gel film was affixed by heating the film, still adhered to the glass substrate, to near its sol-gel transition (approximately 80° C.), pressing the end of the wax-paper container into the softened film, and cooling to room temperature to re-solidify the film.
The 4 and 7 cm wax paper containers, having their bottom ends secured with LDL or soybean oil gel film, were then loaded approximately one-third full with dry Metro-Mix® 360 growing media. One regenerated sugarcane plantlet was then added to each container. […]

Take “poly(lactide-b-dimethylsiloxane-b-lactide) [LDL]”: the “discoloration of plantlet shoots in contact with the closure (phytotoxicity)” value is reported as “no discoloration”.
